According to the NIST ThermoML archive (doi:10.1021/je200856f):
Numbers after ± are expanded uncertainties.

Assay: mn = molality of the nth substance listed, in mol/kg
Settings: 101 kPa, Liquid; for mass density: Vibrating tube method; for electrical conductivity: Wheatstone bridge equipment

C[N+](C)(C)CCCl.[Cl-] [2-chloro-N,N,N-trimethylethanaminium chloride] + O
Settings | electrical conductivity [S/m] | mass density [kg/m3] | viscosity [mPa·s]
278.15 K, m1 = 0.0236 | – | – | 1.526 ± 0.048
278.15 K, m1 = 0.0464 | – | – | 1.536 ± 0.049
278.15 K, m1 = 0.0506 | – | 1001.45 ± 0.23 | –
278.15 K, m1 = 0.0994 | – | – | 1.555 ± 0.049
278.15 K, m1 = 0.1009 | – | 1002.89 ± 0.24 | –
278.15 K, m1 = 0.2364 | – | 1006.79 ± 0.25 | –
278.15 K, m1 = 0.2464 | – | – | 1.61 ± 0.051
278.15 K, m1 = 0.3552 | – | – | 1.656 ± 0.052
278.15 K, m1 = 0.499 | – | – | 1.712 ± 0.054
278.15 K, m1 = 0.501 | – | 1013.92 ± 0.28 | –
278.15 K, m1 = 0.6479 | – | – | 1.778 ± 0.056
278.15 K, m1 = 0.6523 | – | 1017.88 ± 0.29 | –
278.15 K, m1 = 0.7493 | – | – | 1.815 ± 0.057
278.15 K, m1 = 0.7529 | – | 1020.46 ± 0.3 | –
278.15 K, m1 = 0.9041 | – | – | 1.914 ± 0.061
278.15 K, m1 = 0.9927 | – | – | 1.933 ± 0.061
278.15 K, m1 = 1.176 | – | – | 2.01 ± 0.064
278.15 K, m1 = 1.2 | – | 1031.18 ± 0.35 | –
278.15 K, m1 = 1.497 | – | 1038.13 ± 0.37 | –
278.15 K, m1 = 1.542 | – | – | 2.298 ± 0.073
278.15 K, m1 = 1.986 | – | 1048.24 ± 0.42 | –
278.15 K, m1 = 2.148 | – | – | 2.612 ± 0.083
288.15 K, m1 = 0.0236 | – | – | 1.148 ± 0.036
288.15 K, m1 = 0.0464 | – | – | 1.156 ± 0.037
288.15 K, m1 = 0.0506 | – | 1000.52 ± 0.23 | –
288.15 K, m1 = 0.0994 | – | – | 1.172 ± 0.037
288.15 K, m1 = 0.1009 | – | 1001.9 ± 0.24 | –
288.15 K, m1 = 0.2364 | – | 1005.65 ± 0.25 | –
288.15 K, m1 = 0.2464 | – | – | 1.211 ± 0.038
288.15 K, m1 = 0.3552 | – | – | 1.241 ± 0.039
288.15 K, m1 = 0.499 | – | – | 1.286 ± 0.041
288.15 K, m1 = 0.501 | – | 1012.48 ± 0.27 | –
288.15 K, m1 = 0.6479 | – | – | 1.335 ± 0.042
288.15 K, m1 = 0.6523 | – | 1016.28 ± 0.29 | –
288.15 K, m1 = 0.7493 | – | – | 1.362 ± 0.043
288.15 K, m1 = 0.7529 | – | 1018.75 ± 0.3 | –
288.15 K, m1 = 0.9041 | – | – | 1.433 ± 0.045
288.15 K, m1 = 0.9927 | – | – | 1.447 ± 0.046
288.15 K, m1 = 1.176 | – | – | 1.502 ± 0.048
288.15 K, m1 = 1.2 | – | 1029.02 ± 0.34 | –
288.15 K, m1 = 1.497 | – | 1035.68 ± 0.37 | –
288.15 K, m1 = 1.542 | – | – | 1.708 ± 0.054
288.15 K, m1 = 1.986 | – | 1045.39 ± 0.41 | –
288.15 K, m1 = 2.148 | – | – | 1.932 ± 0.062
298.15 K, m1 = 0.0236 | – | – | 0.907 ± 0.029
298.15 K, m1 = 0.0277 | 0.265 ± 0.003 | – | –
298.15 K, m1 = 0.0464 | – | – | 0.913 ± 0.029
298.15 K, m1 = 0.0506 | – | 998.426 ± 0.23 | –
298.15 K, m1 = 0.0514 | 0.49 ± 0.005 | – | –
298.15 K, m1 = 0.0994 | – | – | 0.924 ± 0.029
298.15 K, m1 = 0.1003 | 0.898 ± 0.009 | – | –
298.15 K, m1 = 0.1009 | – | 999.762 ± 0.23 | –
298.15 K, m1 = 0.2364 | – | 1003.4 ± 0.25 | –
298.15 K, m1 = 0.2464 | – | – | 0.955 ± 0.03
298.15 K, m1 = 0.2497 | 1.97 ± 0.02 | – | –
298.15 K, m1 = 0.3502 | 2.58 ± 0.03 | – | –
298.15 K, m1 = 0.3552 | – | – | 0.977 ± 0.031
298.15 K, m1 = 0.499 | – | – | 1.012 ± 0.032
298.15 K, m1 = 0.5001 | 3.36 ± 0.04 | – | –
298.15 K, m1 = 0.501 | – | 1010.02 ± 0.27 | –
298.15 K, m1 = 0.6479 | – | – | 1.047 ± 0.033
298.15 K, m1 = 0.6509 | 4.1 ± 0.04 | – | –
298.15 K, m1 = 0.6523 | – | 1013.7 ± 0.29 | –
298.15 K, m1 = 0.7493 | – | – | 1.069 ± 0.034
298.15 K, m1 = 0.7498 | 4.51 ± 0.05 | – | –
298.15 K, m1 = 0.7529 | – | 1016.09 ± 0.29 | –
298.15 K, m1 = 0.8997 | 5.07 ± 0.05 | – | –
298.15 K, m1 = 0.9041 | – | – | 1.124 ± 0.036
298.15 K, m1 = 0.9927 | – | – | 1.133 ± 0.036
298.15 K, m1 = 0.9998 | 5.42 ± 0.06 | – | –
298.15 K, m1 = 1.176 | – | – | 1.173 ± 0.037
298.15 K, m1 = 1.2 | – | 1026.04 ± 0.34 | –
298.15 K, m1 = 1.212 | 6.08 ± 0.06 | – | –
298.15 K, m1 = 1.497 | – | 1032.48 ± 0.36 | –
298.15 K, m1 = 1.507 | 6.81 ± 0.07 | – | –
298.15 K, m1 = 1.542 | – | – | 1.292 ± 0.041
298.15 K, m1 = 1.986 | – | 1041.87 ± 0.41 | –
298.15 K, m1 = 1.998 | 7.67 ± 0.08 | – | –
298.15 K, m1 = 2.148 | – | – | 1.493 ± 0.048
308.15 K, m1 = 0.0236 | – | – | 0.711 ± 0.023
308.15 K, m1 = 0.0464 | – | – | 0.714 ± 0.023
308.15 K, m1 = 0.0506 | – | 995.387 ± 0.23 | –
308.15 K, m1 = 0.0994 | – | – | 0.722 ± 0.023
308.15 K, m1 = 0.1009 | – | 996.694 ± 0.23 | –
308.15 K, m1 = 0.2364 | – | 1000.25 ± 0.24 | –
308.15 K, m1 = 0.2464 | – | – | 0.757 ± 0.024
308.15 K, m1 = 0.3552 | – | – | 0.77 ± 0.025
308.15 K, m1 = 0.499 | – | – | 0.793 ± 0.025
308.15 K, m1 = 0.501 | – | 1006.72 ± 0.27 | –
308.15 K, m1 = 0.6479 | – | – | 0.831 ± 0.026
308.15 K, m1 = 0.6523 | – | 1010.32 ± 0.28 | –
308.15 K, m1 = 0.7493 | – | – | 0.833 ± 0.027
308.15 K, m1 = 0.7529 | – | 1012.65 ± 0.29 | –
308.15 K, m1 = 0.9041 | – | – | 0.879 ± 0.028
308.15 K, m1 = 0.9927 | – | – | 0.89 ± 0.028
308.15 K, m1 = 1.176 | – | – | 0.915 ± 0.029
308.15 K, m1 = 1.2 | – | 1022.36 ± 0.34 | –
308.15 K, m1 = 1.497 | – | 1028.63 ± 0.36 | –
308.15 K, m1 = 1.542 | – | – | 1.005 ± 0.032
308.15 K, m1 = 1.986 | – | 1037.78 ± 0.4 | –
308.15 K, m1 = 2.148 | – | – | 1.158 ± 0.037
318.15 K, m1 = 0.0236 | – | – | 0.596 ± 0.019
318.15 K, m1 = 0.0464 | – | – | 0.595 ± 0.019
318.15 K, m1 = 0.0506 | – | 991.452 ± 0.23 | –
318.15 K, m1 = 0.0994 | – | – | 0.602 ± 0.019
318.15 K, m1 = 0.1009 | – | 992.837 ± 0.23 | –
318.15 K, m1 = 0.2364 | – | 996.273 ± 0.24 | –
318.15 K, m1 = 0.2464 | – | – | 0.645 ± 0.021
318.15 K, m1 = 0.3552 | – | – | 0.66 ± 0.021
318.15 K, m1 = 0.499 | – | – | 0.661 ± 0.021
318.15 K, m1 = 0.501 | – | 1002.68 ± 0.27 | –
318.15 K, m1 = 0.6479 | – | – | 0.694 ± 0.022
318.15 K, m1 = 0.6523 | – | 1006.2 ± 0.28 | –
318.15 K, m1 = 0.7493 | – | – | 0.691 ± 0.022
318.15 K, m1 = 0.7529 | – | 1008.52 ± 0.29 | –
318.15 K, m1 = 0.9041 | – | – | 0.733 ± 0.023
318.15 K, m1 = 0.9927 | – | – | 0.75 ± 0.024
318.15 K, m1 = 1.176 | – | – | 0.759 ± 0.024
318.15 K, m1 = 1.2 | – | 1018.06 ± 0.33 | –
318.15 K, m1 = 1.497 | – | 1024.21 ± 0.35 | –
318.15 K, m1 = 1.542 | – | – | 0.835 ± 0.027
318.15 K, m1 = 1.986 | – | 1033.17 ± 0.4 | –
318.15 K, m1 = 2.148 | – | – | 0.948 ± 0.03
